Values quoted from earlier work as cited in patent US20230330076A1, “CONTROLLED RELEASE FORMULATIONS OF FLAVOXATE AND PROCESS FOR PREPARATION THEREOF” (priority 2021, published 2023).
Read-outs that look alike come from different tables or passages of the source.

Legend:
[1] = not given; remark: listed apart in the source
[2] = tested on: α- and β-noradrenergic, muscarinic, serotoninergic and opiate receptors, and calcium binding sites; details: rat brain tissue

Compound | apparent volume of distribution (in vivo, iv, 100 mg) | T½ (IV dose equimolar to 100 mg) | apparent volume of distribution (IV dose equimolar to 100 mg) | dose excreted as MFCA (IV dose equimolar to 100 mg, urine) | time of peak level of MFCA ([1]; single oral 200 mg dose) | time of peak level of MFCA ([1]; single oral 400 mg dose) | AUC for the 400 mg dose relative to the 200 mg dose ([1]; single oral dosing) | dose excreted as MFCA ([1]; single oral dosing, within 12 hours) | binding activity on receptors [2]
3-methylflavone carboxylic acid [MFCA] | 0.20 L/kg | – | – | – | – | – | – | – | –
Cc1c(-c2ccccc2)oc2c(C(=O)OCCN3CCCCC3)cccc2c1=O.Cl [Flavoxate hydrochloride, 2-piperidinoethyl 3-methylflavone-8-carboxylate hydrochloride] | – | 1.39 h | 2.89 L/kg | 47% | 30 to 60 min | around two hours | approximately twice as large | About 50% | only weak binding activity
